This note sets out measurements from publication PMC11859264, “Discovery of a Novel Multitarget Analgesic Through an In Vivo-Guided Approach” (Pharmaceuticals, 2025).

Each structure is given as a SMILES string.

The test system of the experiment is panel of 47 drug target molecules. The experiment is described as follows: Screening against a panel of pain-related drug targets at 10 μM. It is filed as binding. As to the method: To elucidate the mechanism of action of compound 29 in producing analgesic effects, its inhibitory effects were systematically evaluated through a screening process. The compound was tested at a concentration of 10 μM against a diverse panel of 47 drug target molecules that are closely associated with pain modulation pathways.
The screening of pain-related receptors for the mechanism of action study of compound 29 was conducted by outsourcing the experiment to Eurofins (https://www.eurofins.com, accessed on 30 July 2024). Methods employed in this study have been adapted from the scientific literature to maximize reliability and reproducibility. Reference standards were run as an integral part of each assay to ensure the validity of the results obtained. […] Where presented, IC50 values were determined by a non-linear, least squares regression analysis using MathIQTM (ID Business Solutions Ltd., Woking, Surrey, UK). Where inhibition constants (Ki) are presented, the Ki values were calculated using the equation of Cheng and Prusoff using the observed IC50 of the tested compound, the concentration of radioligand (*) employed in the assay, and the historical values for the KD of the ligand (obtained experimentally at Eurofins Panlabs, Inc.). Where presented, the Hill coefficient (nH), defining the slope of the competitive binding curve, was calculated using MathIQTM.

For the compound `N#Cc1ccc2[nH]cc(C(=O)NCCN3CCN(c4ccc5ccccc5n4)CC3)c2c1` [Compound 29, 5-Cyano-N-(2-(4-(quinolin-2-yl)piperazin-1-yl)ethyl)-1H-indole-3-carboxamide], the “number of targets with more than 50% inhibition” value is on record as 16.
